# Test results taken from US6222035A, “[1,2,4] triazolo [1,5-C] pyrimidine derivatives” (Kyowa Hakko Kogyo Co., Ltd., priority 1997, dated 2001).
# Where a name gives a salt, the structure may show the parent alone.
# Legend:
# adenosine A2A receptor = molecular target: T1, adenosine A2A receptor (Rattus norvegicus, UniProt P30543); assay: Adenosine receptor binding activity (adenosine A2A receptor binding test), 3H-CGS 21680 binding; conditions: 2 h; 10^-7 M; read-out: A2A receptor inhibition ratio (%)
# T1 construct: from tissue; host or cells: rat corpus striatum, washed membrane suspension
# Procedure: Adenosine receptor binding activity (adenosine A2A receptor binding test) This test was carried out by slightly modifying the method of Bruns et al. [Molecular Pharmacology, 29: 331 (1986)].
# Corpus striatum of a rat was suspended in an ice-cooled 50 mM tris(hydroxymethyl)aminomethane hydrochloride (hereinafter referred to as "Tris-HCl") buffer (pH 7.7) using Polytron Homogenizer (manufactured by Kinematica Co.). The suspension was centrifuged (50,000×g, 10 minutes), and the obtained precipitate was re-suspended in the same amount of 50 mM Tris-HCl buffer. The suspension was centrifuged under the same conditions, and the final precipitate was suspended in 50 mM Tris-HCl [containing 10 mM magnesium chloride and 0.02 unit/mg tissue of adenosine deaminase (manufactured by Sigma Co.)] to give a tissue concentration of 5 mg (wet weight)/ml.
# To 1 ml of the tissue suspension thus prepared were added 50 μl of tritium-labeled CGS 21680 {^3 H-2-[p-(2-carboxyethyl)phenethylamino]-5'-N-ethylcarboxamido)adenosine: 40 Ci/mmol; manufactured by New England Nuclear Co.[The Journal of Pharmacology and Experimental Therapeutics, 251: 888 (1989)]} (final concentration:4.0 nM) and 50 μl of a test compound. The resulting mixture was allowed to stand for 120 minutes at 25° C., and then rapidly filtered by suction through a glass fiber filter (GF/C, manufactured by Whatman Co.) The filter was immediately washed three times with […] of an ice-cooled 50 mM Tris-HCl buffer, and transferred to a vial, a scintillator (EX-H , manufactured by Wako Pure Chemical Industries, Ltd.) was added thereto, and the radioactivity on the filter was determined with a liquid scintillation counter (manufactured by Packard Instrument Co.) […]
# The inhibition ratio of the test compound against the A2A receptor binding (^3 H-CGS 21680 binding) was calculated by the following equation:
# Inhibition ratio (%)={1-(Amount of the binding in the presence of the test compound-Amount of the nonspecific binding)/(Amount of the total binding-Amount of the nonspecific binding)}×100
# (Note) Amount of the total binding means the amount of radioactivity of ^3 H-CGS 21680 bound in the absence of the test compound. Amount of the nonspecific binding means the amount of radioactivity of ^3 H-CGS 21680 bound in the presence of 100 μM cyclopentyladenosine (CPA, manufactured by Sigma Co.) Amount of the binding in the presence of the test compound means the amount of radioactivity of ^3 H-CGS 21680 bound in the presence of the test compound at various levels of concentrations.
# [1] = test system: CGS 21680-induced catalepsy in mice; assay: Activity on CGS 21680-induced Catalepsy; assay type: in vivo, mouse (male ddY); conditions: 10 mg/kg oral; for Total score (catalepsy): 10 animals, maximum 50 points, control 48; for Number of Animals showing remission: catalepsy score 4 points or less in 10 cases; for inhibition in vivo at 10 mg/kg: Mus musculus, CGS 21680-induced catalepsy, read-out: Remission ratio (%)
# Procedure: Activity on CGS 21680-induced Catalepsy
# Parkinson's disease is motor deficit based on the degeneration and cell death of the nigrostriatal dopaminergic neuron. […] [Journal of Neuroscience, 16: 605 (1996)]. Accordingly, it is considered that adenosine A2A receptor agonists positively regulate the output of the striopallidal GABAergic neurons and, as a result, catalepsy is induced by the administration of CGS 21680.
# This test was carried out using 10 animals per group of male ddY mice of 5 week age (22 to 25 g in body weight, Japan SLC). CGS 21680 (manufactured by RBI) was dissolved in a physiological saline (manufactured by Otsuka Pharmaceutical), and 10 μg/20 μl of the solution was injected into mouse intracerebro-ventricle. Test compounds were used by suspending them in distilled water containing 0.3% of polyoxyethylene(20)sorbitan monooleate (hereinafter referred to as "Tween 80") (manufactured by Otsuka Pharmaceutical). […] One hour after the administration of the test compound, only forelimbs or only hindlimbs of each animal were laid on a vertically arranged stand made of acryl, having a size of 4.5 cm in height and 1.0 cm in width, to measure catalepsy symptoms. All of the compounds were administered orally in a dose of 10 mg/kg.
# The effect was judged by total catalepsy scores of 10 animals in one group (the maximum is 50 points). When the total score was 40 points or less, the activity of drugs was judged positive. The number of animals showing remission of catalepsy was expressed by the number of cases in which the catalepsy score was 4 points or less in 10 cases. The catalepsy remission ratio was expressed as the percentage of the total score in the test compound-administered group to the total score in the control group.
# T1 sequence (P30543 whole entry): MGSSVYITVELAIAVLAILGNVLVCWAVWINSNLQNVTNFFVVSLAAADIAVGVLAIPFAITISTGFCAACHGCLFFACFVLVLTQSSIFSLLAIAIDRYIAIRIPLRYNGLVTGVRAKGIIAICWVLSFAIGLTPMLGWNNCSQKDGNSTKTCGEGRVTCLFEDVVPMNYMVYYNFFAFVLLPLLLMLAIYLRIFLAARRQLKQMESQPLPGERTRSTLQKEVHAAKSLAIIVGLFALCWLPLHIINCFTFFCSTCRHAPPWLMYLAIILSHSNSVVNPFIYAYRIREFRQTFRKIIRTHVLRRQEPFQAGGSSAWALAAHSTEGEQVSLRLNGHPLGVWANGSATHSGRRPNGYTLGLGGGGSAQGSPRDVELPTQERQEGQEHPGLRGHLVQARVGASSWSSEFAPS
inhibition at 0.1 µM (adenosine A2A receptor) [%],SMILES,Total score (catalepsy) [1],Number of Animals showing remission [1],inhibition in vivo at 10 mg/kg [1] [%]
77,"COc1cc(CN2CCN(c3cc4nc(-c5ccco5)nn4c(N)n3)CC2)cc(OC)c1OC [Compound 77, 5-Amino-2-(2-furyl)-7-(4-(3,4,5-trimethoxybenzyl)piperazinyl)[1,2,4]triazolo[1,5-c]pyrimidine]",21,9,54
85,"Nc1nc(N2CCN(Cc3ccccc3F)CC2)cc2nc(-c3ccco3)nn12 [Compound 78, 5-Amino-7-(4-(2-fluorobenzyl)piperazinyl)-2-(2-furyl)[1,2,4]triazolo[1,5-c]pyrimidine]",6,10,86
93,"Nc1nc(N2CCN(Cc3c(Cl)cccc3Cl)CC2)cc2nc(-c3ccco3)nn12 [Compound 80, 5-Amino-7-(4-(2,6-dichlorobenzyl)piperazinyl)-2-(2-furyl)[1,2,4]triazolo[1,5-c]pyrimidine hydrochloride]",3,10,92
63,"Nc1nc(N2CCN(Cc3ccccn3)CC2)cc2nc(-c3ccco3)nn12 [Compound 84, 5-Amino-2-(2-furyl)-7-(4-(2-picolyl)piperazinyl)[1,2,4]triazolo[1,5-c]pyrimidine]",9,9,78
83,"COc1ccc(CCCN2CCN(c3cc4nc(-c5ccco5)nn4c(N)n3)CC2)cc1OC [Compound 86, 5-Amino-7-(4-(3-(3,4-dimethoxyphenyl)propyl)piperazinyl)-2-(2-furyl)[1,2,4]triazolo[1,5-c]pyrimidine]",13,9,72
77,"Nc1nc(N2CCN(CCCc3cccnc3)CC2)cc2nc(-c3ccco3)nn12 [Compound 87, 5-Amino-2-(2-furyl)-7-(4-(3-(3-pyridyl)propyl)piperazinyl)[1,2,4]triazolo[1,5-c]pyrimidine hydrochloride]",14,9,68
82,"Nc1nc(N2CCN(CCOc3ccccc3)CC2)cc2nc(-c3ccco3)nn12 [Compound 90, 5-Amino-2-(2-furyl)-7-(4-(2-phenoxyethyl)piperazinyl)[1,2,4]triazolo[1,5-c]pyrimidine hydrochloride]",12,9,80
36,"Nc1nc(N2CCN(c3ccccn3)CC2)cc2nc(-c3ccco3)nn12 [Compound 93, 5-Amino-2-(2-furyl)-7-(4-(2-pyridyl)piperazinyl)[1,2,4]triazolo[1,5-c]pyrimidine]",10,8,66
58,"CCOCCN1CCN(c2cc3nc(-c4ccco4)nn3c(N)n2)CC1 [Compound 96, 5-Amino-7-(4-(2-ethoxyethyl)piperazinyl)-2-(2-furyl)[1,2,4]triazolo[1,5-c]pyrimidine]",7,9,86
79,"Nc1nc(N2CCN(CCOCc3ccccc3)CC2)cc2nc(-c3ccco3)nn12 [Compound 97, 5-Amino-7-(4-(2-benzyloxyethyl)piperazinyl)-2-(2-furyl)[1,2,4]triazolo[1,5-c]pyrimidine hydrochloride]",4,10,90
59,"COCCCN1CCN(c2cc3nc(-c4ccco4)nn3c(N)n2)CC1 [Compound 99, 5-Amino-2(2-furyl)-7-(4-(3-methoxypropyl)piperazinyl)[1,2,4]triazolo[1,5-c]pyrimidine]",5,10,90
54,"CCOCCCN1CCN(c2cc3nc(-c4ccco4)nn3c(N)n2)CC1 [Compound 100, 5-Amino-7-(4-(3-ethoxypropyl)piperazinyl)-2-(2-furyl)[1,2,4]triazolo[1,5-c]pyrimidine]",4,10,90
46,"CC(C)OCCCN1CCN(c2cc3nc(-c4ccco4)nn3c(N)n2)CC1 [Compound 101, 5-Amino-2-(2-furyl)-7-(4-(3-isopropoxypropyl)piperazinyl)[1,2,4]triazolo[1,5-c]pyrimidine]",8,10,82
53,"Nc1nc(N2CCN(CCOCCO)CC2)cc2nc(-c3ccco3)nn12 [Compound 103, 5-Amino-2-(2-furyl)-7-(4-(2-(2-hydroxyethoxy)ethyl)piperazinyl)[1,2,4]triazolo[1,5-c]pyrimidine]",2,10,94
22,"C[C@@H]1CN(c2cc3nc(-c4ccco4)nn3c(N)n2)C[C@H](C)N1C [Compound 115, 5-Amino-7-(cis-3,5-dimethyl-4-methylpiperazinyl)-2-(2-furyl)[1,2,4]triazolo[1,5-c]pyrimidine hydrochloride]",5,10,88
38,"C[C@@H]1CN(c2cc3nc(-c4ccco4)nn3c(N)n2)C[C@H](C)N1Cc1ccccc1 [Compound 116, 5-Amino-7-(4-benzyl-cis-3,5-dimethylpiperazinyl)-2-(2-furyl)[1,2,4]triazolo[1,5-c]pyrimidine]",5,10,90
29,"C[C@@H]1CN(c2cc3nc(-c4ccco4)nn3c(N)n2)C[C@H](C)N1CCO [Compound 120, 5-Amino-7-(cis-3,5-dimethyl-4-(2-hydroxyethyl)piperazinyl)-2-(2-furyl)[1,2,4]triazolo[1,5-c]pyrimidine]",3,10,94
42,"CCCN1CCN(c2cc3nc(-c4ccco4)nn3c(N)n2)CC1 [Compound 123, 5-Amino-2-(2-furyl)-7-(4-propylpiperazinyl)[1,2,4]triazolo[1,5-c]pyrimidine]",1,10,96
59,"C=CCN1CCN(c2cc3nc(-c4ccco4)nn3c(N)n2)CC1 [Compound 124, 5-Amino-7-(4-allylpiperazinyl)-2-(2-furyl)[1,2,4]triazolo[1,5-c]pyrimidine]",12,9,76
